Measurements published in patent US4647563A, “Heterocyclic compounds” (Boehringer Ingelheim KG, priority 1978, dated 1987).
Read-outs that look alike come from different tables or passages of the source.

Key:
[1] = Acute toxicity, LD50 in mice; conditions: mouse, in vivo
[2] = test system: acetylcholine bronchospasm; assay: Bronchospasmolysis: influence on acetylcholine bronchospasm in guinea pigs under urethane anaesthesia, body plethysmography; format: in vivo; conditions: Cavia porcellus
Experimental: 1. Bronchospasmolysis The activity was tested on guinea pigs under urethane anaesthesia. Body plethysmography was used to determine the influence on acetylcholine bronchospasm after intravenous and oral application.

heart rate = assay: Increase in heart rate at the ED50 of uterine relaxation on anesthetized rats; format: in vivo
Experimental: (§1) Uterine relaxation was investigated on anesthetized rats. The intravenous ED50 of uterine relaxation was determined in ug/kg (50% of the tested animals react) and the (undesirable) increase in heart rate at the ED50 value was also determined. The comparison compound was fenoterol.

Uterine relaxation = Uterine relaxation on anesthetized rats; format: in vivo; conditions: Rattus norvegicus, iv, read-out: Uterine relaxation ED50 i.v.
Experimental: as §1

[3] = intravenous, read-out: Broncholysis ED50 intravenous
[4] = oral, read-out: Broncholysis ED50 oral
[5] = anesthetized rats, 50% of the tested animals react

CC(C)(CCn1cnc2ccccc21)NCC(O)c1ccc(O)cc1F (stereo not drawn) [Example 6, 1-(2-Fluoro-4-hydroxy-phenyl)-2-[4-(1-benzimidazolyl)-2-methyl-2-butylamino]-ethanol]
LD50 ([1]; iv): 29 mg/kg
LD50 ([1]; po): 300 mg/kg
ED50 [2, 3]: 3.6 µg/kg
ED50 [2, 4]: 7 µg/kg

CC(Cc1ccc(O)cc1)NCC(O)c1cc(O)cc(O)c1 (stereo not drawn) [Fenoterol, reference compound]
Increase in heart rate in comparison with fenoterol (heart rate; at the ED50 of uterine relaxation, fenoterol = 1, rats): 1
Increase in heart rate (beats per min.) (heart rate; at the ED50 of uterine relaxation, i.v., anesthetized rats): 36 beats per min.
ED50 (Uterine relaxation): 0.45 µg/kg

CC(C)(C)NCC(O)c1ccc(O)c(CO)c1 (stereo not drawn) [Salbutamol, reference compound]
ED50 [2, 3]: 9.2 µg/kg
ED50 [2, 4]: 1000 µg/kg

Cc1c(C(O)CNC(C)(C)CCn2nnc3ccccc32)ccc(O)c1O (stereo not drawn) [Table II, 15th compound]
Increase in heart rate in comparison with fenoterol (heart rate; rat, in vivo): 2/3
Increase in heart rate (beats per min.) (heart rate; rat, in vivo, iv): 23 beats per min.
ED50 (Uterine relaxation; [5]): 0.44 µg/kg

CC(=O)Nc1cc(C(O)CNC(C)(C)CCn2cnc3ccccc32)ccc1O (stereo not drawn) [Table II, 16th compound]
ED50 [2, 3]: 1.8 µg/kg
ED50 [2, 4]: 66 µg/kg

CC(C)(CCn1cnc2ccccc21)NCC(O)c1ccc(O)cc1Cl (stereo not drawn) [Table II, 21st compound]
ED50 [2, 3]: 7.6 µg/kg
ED50 [2, 4]: 190 µg/kg

CC(C)(CCCn1cnc2ccccc21)NCC(O)c1ccc(O)c(NS(C)(=O)=O)c1 (stereo not drawn) [Table II, 24th compound]
Increase in heart rate in comparison with fenoterol (heart rate; rat, in vivo): 1/2
Increase in heart rate (beats per min.) (heart rate; rat, in vivo, iv): 18 beats per min.
ED50 (Uterine relaxation; [5]): 0.5 µg/kg

CC(C)(CCn1cnc2ccccc21)NCC(O)c1ccc(O)cc1 (stereo not drawn) [Table III 10th compound]
Increase in heart rate in comparison with fenoterol (heart rate; rat, in vivo): 1/2
Increase in heart rate (beats per min.) (heart rate; rat, in vivo, iv): 19 beats per min.
ED50 (Uterine relaxation; [5]): 0.82 µg/kg

CC(C)(CCn1cnc2ccccc21)NCC(O)c1ccc(O)c(NC(N)=O)c1 (stereo not drawn) [Table III, 15th compound]
ED50 [2, 3]: 0.9 µg/kg
ED50 [2, 4]: 14 µg/kg

CC(C)(CCn1cnc2ccccc21)NCC(O)c1ccc(O)c(CO)c1 (stereo not drawn) [Table III, 16th compound]
ED50 [2, 3]: 1.2 µg/kg
ED50 [2, 4]: 7.6 µg/kg

CC(C)(CCn1cnc2ccccc21)NCC(O)c1ccc(O)c2c1OCC(=O)N2 (stereo not drawn) [Table III, 24th compound]
ED50 [2, 4]: 5.4 µg/kg
